Consider six molecules from patent US20020076722A1, “Antibiotic hypersusceptibility mutations in bacteria” (priority 2000, published 2002).

Experiment [1] concerns Acinetobacter library cells and SDR-selected clones. The experiment can be described thus: Growth of clones replica-plated on LB-agar plates with different concentrations of ampicillin. The class given is cell-based, Acinetobacter sp. As to the method: Each individual clone was inoculated into a well of a 96-well plate. When the cultures reached the density of approx. OD600 0.2-0.5, they were transferred by using a 6×8-pin replicator onto LB-agar plates containing kanamycin (25 μg/ml) and different concentrations of ampicillin. Plates were digitally scanned after 24 hr of incubation at 37° C. (FIG. 3). The spots indicated as Library are identical cultures from the original library and serve here as controls.
The computer scans of different plates were combined in a single set. This study has been conducted essentially as described in Example 2.

The test system of experiment [2] is Acinetobacter library cells. Put plainly: Inhibition of growth of Acinetobacter library cells by ampicillin in liquid culture. The class given is cell-based, Acinetobacter sp. strain BD413. The procedure:
Clones hypersusceptible to the β-lactam drug ampicillin, an antibiotic that is well known to cause bacterial lysis, were selected. As compared to E. coli, Acinetobacter is remarkably resistant to ampicillin.
To purify the DNA released, bacterial cells from the insertional library of Acinetobacter were diluted in LB medium to OD600 0.025 and allowed to grow at 37° C. to OD600 0.1. Ampicillin was added to 5 ml aliquots of the culture at a variety of concentrations. After two hours, the cells were removed by centrifugation. DNA released into the medium in response to incubation with ampicillin was purified using a variation of the Wizard DNA purification protocols of Promega. Specifically, three grams of guanidine-HCl was dissolved in 5 ml of the culture medium and 1 ml of the slurry of DNA-binding silica resin (Promega Wizard DNA purification resin) was added. After a 5 min incubation with shaking, the resin was collected in a mini-column by passing the slurry through it with a syringe. […]
Cells of a frozen insertional library of Acinetobacter were diluted in LB medium to OD600 0.025 and allowed to grow at 37° C. to OD600 0.1, at which point ampicillin was added to 5 ml aliquots of the culture at the indicated concentrations. Two hours later the density of the cultures was measured, cells were removed by centrifugation and the DNA released into the medium was purified. […]

A further experiment deals with LIT1 strain. The experiment can be described thus: Release of DNA and growth of the LIT1 lysis reporter strain with translational inhibitors. The class given is cell-based, Acinetobacter. As to conditions: LIT1 clone; for DNA released in presence of antibiotic versus absence, normalized per ml of culture: 2 h (chloramphenicol) or 1.5 h (erythromycin, tetracycline). The procedure: The LIT1 cells were inoculated in LB at OD600 0.05 and grown at 37° C. to OD600 0.2 at which time antibiotics were added at indicated concentrations. Two (chloramphenicol) or 1.5 (erythromycin and tetracycline) hours later the OD600 of the cultures were measured, cells were spun down and the released DNA was purified as described above. The amounts of DNA in μg normalized per milliliter of culture was determined fluorimetrically by adding an aliquot of the isolated DNA to the solution of ethidium bromide (0.5 μg/ml) and measuring the fluorescence at λex 540 and λem 580 nm (FIG. 7). The values obtained were compared with the calibration curve for known amounts of DNA.

The test system of experiment [3] is alkM model strain (lysis cassette under alkM promoter). The experiment can be described thus: Induction of DNA release by hexadecane in the alkM model strain. The class given is cell-based, Acinetobacter. As to the method:
(§1) FIG. 6—Gene organization in the alkM model strain and induction of DNA release before and after SDR selection. Transformants 1 and 2 and the derivative of the transformant 1 after four cycles of SDR selection were grown to OD600 0.3 and a drop of hexadecane was added to 5 ml of the culture. After overnight incubation (induction of the alkM expression occurs only in stationary phase (Ratajczak et al., J. Bacteriol. 180(22):5822-7, 1998)) the released DNA was purified from the medium as described in the text.
(§2) A model strain of Acinetobacter with the lysis cassette of λ inserted under the control of a antibiotic-inducible promoter was constructed and determined to release DNA in response to the antibiotic inducer. A promoter of the alkM gene of Acinetobacter, which encodes an enzyme involved in degradation of hydrocarbons and whose expression is activated dramatically by hexadecane, was chosen (Ratajczak et al., 1998). The promoter-less lysis cassette was PCR-amplified from the DNA of λ. The 5′-end of the gene of S-protein, which is the limiting factor in lysis (Young, 1992), was modified by an appropriately designed PCR primer. In particular, the alternative start codon from which an inhibitory variant of S is translated has been eliminated by mutation. […]

For the next experiment, the system named is wild-type Acinetobacter. Put plainly: DNA release by hexadecane in wild-type Acinetobacter. The class given is cell-based. As to the method:
as §1, §2

For the next experiment, the system named is E. Coli. As to conditions: bulgecin as known inhibitor of Slt; cited from earlier work.

On to `CC1(C)S[C@@H]2[C@H](NC(=O)[C@H](N)c3ccccc3)C(=O)N2[C@H]1C(=O)O` [ampicillin], for which the “ampicillin concentration on plates at which library cells were still growing” value in experiment [1] (original library cells, LB-agar, 24 hr) worked out at 32 µg/mL. Besides, the “ampicillin concentration at which clones could not grow” value in experiment [1] (seventeen of 30 tested clones selected with 3 μg/ml of ampicillin) stood at 1 µg/mL. Also, in experiment [2] (1, 3 and 9 μg/ml ampicillin, little lysis), the “growth inhibition at the concentrations used for SDR selection” value was “only moderate growth inhibition”. Further, in experiment [2] (liquid culture, LB, 37° C., two hours), the “ampicillin concentration at which slow growth was still observed” value came out at 729 µg/mL.
Turning to `O=C(N[C@H](CO)[C@H](O)c1ccc([N+](=O)[O-])cc1)C(Cl)Cl` [chloramphenicol], in the experiment with LIT1 strain, the “increase of released DNA normalized per number of cells” value is recorded as “approximately ten-fold” and the “DNA released in presence of antibiotic versus absence, normalized per ml of culture” value was “four times more”.
On to `CC[C@H]1OC(=O)[C@H](C)[C@@H](O[C@H]2C[C@@](C)(OC)[C@@H](O)[C@H](C)O2)[C@H](C)[C@@H](O[C@@H]2O[C@H](C)C[C@H](N(C)C)[C@H]2O)[C@](C)(O)C[C@@H](C)C(=O)[C@H](C)[C@@H](O)[C@]1(C)O` [erythromycin], for which, in the experiment with LIT1 strain, the “increase of released DNA normalized per number of cells” value was “approximately ten-fold” and the “DNA released in presence of antibiotic versus absence, normalized per ml of culture” value is “four-fold”.
On to `CCCCCCCCCCCCCCCC` [hexadecane], for which the “effect on optical density of the culture” value in experiment [3] (model strain before SDR selection) is given as “did not cause significant reduction”. Also, the “effect on amount of DNA released” value in experiment [3] (transformants, drop of hexadecane in 5 ml culture, overnight) is on record as “significant increase”. Also, in the experiment on wild-type Acinetobacter, the “effect on release of DNA” value is “no effect”.
`CN(C)[C@@H]1C(O)=C(C(N)=O)C(=O)[C@@]2(O)C(O)=C3C(=O)c4c(O)cccc4[C@@](C)(O)[C@H]3C[C@@H]12` [tetracycline]: in the experiment on LIT1 strain, the “increase of released DNA normalized per number of cells” value was roughly 35 fold.
Consider bulgecin, for which, in the experiment on E. Coli, the “effect on sensitivity to the β-lactam antibiotic cefoxitin” value is “increase the sensitivity”.
